From ChEMBL document CHEMBL1121587, “Synthesis of some new S-alkylated derivatives of 5-mercapto-2'-deoxyuridine as potential antiviral agents” (1980)

system: HeLa; experiment: Compound was evaluated for antiviral activity against Herpes simplex type 1 in HeLa TK- cells at 100 uM concentration; type: functional, Homo sapiens

Row | Structure (SMILES) | Virus titer [pfu/ml]
1 | C=CCSc1cnc(O)nc1O | 65000000
2 | CSc1cn(O[C@H]2CC(O)[C@@H](CO)O2)c(=O)[nH]c1=O (stereo not given in full) | 5200000
3 | C#CSc1cnc(O)nc1O | 37000000
4 | C=CCSc1cn(O[C@H]2CC(O)[C@@H](CO)O2)c(=O)[nH]c1=O (stereo not given in full) | 5300000
5 | O=c1[nH]c(=O)n(O[C@H]2CC(O)[C@@H](CO)O2)cc1SCCO (stereo not given in full) | 38000000
